One experiment addresses T1, ALK5 (Homo sapiens, UniProt P36897).
T1 sequence (P36897 205-495 limits assumed): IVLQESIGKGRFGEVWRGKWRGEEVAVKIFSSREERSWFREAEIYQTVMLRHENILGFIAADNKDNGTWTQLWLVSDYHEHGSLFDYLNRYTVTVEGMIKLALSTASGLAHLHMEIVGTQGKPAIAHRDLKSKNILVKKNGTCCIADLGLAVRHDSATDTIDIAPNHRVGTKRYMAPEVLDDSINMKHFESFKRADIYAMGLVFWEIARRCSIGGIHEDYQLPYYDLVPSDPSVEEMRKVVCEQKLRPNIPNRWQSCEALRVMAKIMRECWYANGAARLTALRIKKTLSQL
Briefly: Radiometric 33PanQinase ALK5 kinase assay (ProQinase), casein substrate. The format is biochemical. The settings on record: for remaining activity at 10 µM: compound at 10 μM, in duplicate, read-out: Residual Activity (%) ALK5; for Selectivity Index: IC50 of p38α/IC50 of ALK5. Here is the method:
To investigate whether compounds 14a–d, 15a–d, 16a–d, 17a–d, 18a–d, and 19a–d would inhibit ALK5, a kinase assay for preliminary screening was performed using the purified human ALK5 kinase domain produced in Sf9 insect cells and compounds at 10 μM.
(§1) All kinase experiments were completed by the ProQinase (Freiburg, Germany). All protein kinases were expressed in Sf9 insect cells or in E. coli as recombinant GST-fusion proteins or His-tagged proteins, either as full-length or enzymatically active fragments. All kinases were obtained from human cDNAs and purified by either GSH-affinity chromatography or immobilized metal. The purity of the protein kinases was examined by SDS-PAGE/Coomassie staining. The identity was checked by mass spectroscopy.
(§2) A radiometric protein kinase assay (^33PanQinase® activity assay) was used for measuring the kinase activity of the two protein kinases. All kinase assays were performed in 96-well FlashPlates^TM from PerkinElmer (Boston, MA, USA) in 50 μL reaction volumes. The reaction cocktail was pipetted in four steps in the following order: 20 μL of assay buffer (standard buffer), 5 μL of ATP solution (in H2O), 5 μL of test compound (in 10% DMSO), 20 μL enzyme/substrate mix.
(§3) The assay for all protein kinases contained 70 mM HEPES-NaOH pH 7.5, 3 mM MgCl2, 3 mM MnCl2, 3 μM Na-orthovanadate, 1.2 mM DTT, 50 μg/mL PEG20000, ATP, [γ-^33P]-ATP, protein kinase, and substrate.
(§4) The reaction cocktail was incubated at 30 °C for 60 min. The reaction was halted with 50 μL of 2% (v/v) H3PO4, plates were aspirated and washed two times with 200 μL 0.9% (w/v) NaCl. Incorporation of ^33Pi was established with a microplate scintillation counter (PerkinElmer, Boston, MA, USA). All assays were performed with a BeckmanCoulter/SAGIAN™ Core System.

A further experiment has as its target p38α MAP kinase (Homo sapiens, UniProt Q16539). Briefly: Radiometric 33PanQinase p38α MAP kinase assay (ProQinase), ATF2 substrate. It is filed as biochemical. The settings on record: for remaining activity at 10 µM: compound at 10 μM, in duplicate, read-out: Residual Activity (%) p38α.
Excerpt: We selected p38α MAP kinase to survey the selectivity profile of this series of compounds because its kinase domain is among the most homologous to that of ALK5 [27].
as §1, §2, §3, §4

A value given as a limit tells only on which side of the number the result lay.

A word on the IC50: it is the midpoint of a concentration-inhibition curve. Low values mean greater potency, high ones weaker potency. For orientation: inhibition means the relative decrease from the control value, in per cent. Lower therefore signals a response near the control.

Chain of p38α MAP kinase (Q16539 whole entry, the tested form may be a part): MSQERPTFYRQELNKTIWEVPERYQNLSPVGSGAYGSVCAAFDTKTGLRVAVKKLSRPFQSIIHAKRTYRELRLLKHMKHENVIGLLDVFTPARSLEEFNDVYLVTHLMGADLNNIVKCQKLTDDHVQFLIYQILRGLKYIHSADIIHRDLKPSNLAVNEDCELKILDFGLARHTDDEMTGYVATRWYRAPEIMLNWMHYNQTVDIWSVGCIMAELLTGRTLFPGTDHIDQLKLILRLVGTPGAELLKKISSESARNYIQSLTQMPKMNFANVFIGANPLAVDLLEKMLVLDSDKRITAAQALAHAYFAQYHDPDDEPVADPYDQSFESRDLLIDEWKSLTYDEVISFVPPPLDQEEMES

Take `Cc1cccc(-c2nn3c(c2-c2ccnc4ccc(C(N)=O)cc24)CCC3)n1` [Compound 3, LY-2157299, reference compound]: the remaining activity at 10 µM is 1% at ALK5 and 4% on p38α MAP kinase. On p38α MAP kinase, 0.49 µM corresponded to half-maximal inhibition (IC50).
`CN(C)c1cccc(-c2c(-c3ccc4nccnc4c3)cnn2CC(=O)Nc2ccccc2)n1` [Compound 15a, 2-(5-(6-(Dimethylamino)pyridin-2-yl)-4-(quinoxalin-6-yl)-1H-pyrazol-1-yl)-N-phenylacetamide]: the values for the remaining activity at 10 µM on ALK5 and on p38α MAP kinase were 95% and 118%, respectively.
On the same counts, the results for `Cc1csc(-c2c(-c3ccc4nccnc4c3)cnn2CC(=O)Nc2ccccc2)n1` [Compound 17a, 2-(5-(4-Methylthiazol-2-yl)-4-(quinoxalin-6-yl)-1H-pyrazol-1-yl)-N-phenylacetamide] are 46% and 68%.
On the same counts, the results for `Cc1csc(-c2c(-c3ccc4nccnc4c3)cnn2CC(=O)Nc2ccccc2F)n1` [Compound 17b, N-(2-Fluorophenyl)-2-(5-(4-methylthiazol-2-yl)-4-(quinoxalin-6-yl)-1H-pyrazol-1-yl)acetamide] are 73% and 54%.
On the same counts, the results for `Cc1csc(-c2c(-c3ccc4nccnc4c3)cnn2CC(=O)Nc2cccc(F)c2)n1` [Compound 17c, N-(3-Fluorophenyl)-2-(5-(4-methylthiazol-2-yl)-4-(quinoxalin-6-yl)-1H-pyrazol-1-yl)acetamide] are 69% and 66%.
For `Cc1csc(-c2c(-c3ccc4nccnc4c3)cnn2CC(=O)Nc2cccc(C#N)c2)n1` [Compound 17d, N-(3-Cyanophenyl)-2-(5-(4-methylthiazol-2-yl)-4-(quinoxalin-6-yl)-1H-pyrazol-1-yl)acetamide], the values for the remaining activity at 10 µM on ALK5 and on p38α MAP kinase were 58% and 97%, respectively.
In the case of `Cc1csc(-c2nn(CC(=S)Nc3ccccc3)cc2-c2ccc3nccnc3c2)n1` [Compound 19a, 2-(3-(4-Methylthiazol-2-yl)-4-(quinoxalin-6-yl)-1H-pyrazol-1-yl)-N-phenylethanethioamide], on ALK5, half-maximal inhibition (IC50) was put at 0.57 µM, the “Selectivity Index” value was over 17 and the remaining activity at 10 µM was found to be 5%. At p38α MAP kinase, the IC50 was over 10 µM and the remaining activity at 10 µM amounted to 102%.
As to `Cc1csc(-c2nn(CC(=S)Nc3ccccc3F)cc2-c2ccc3nccnc3c2)n1` [Compound 19b, N-(2-Fluorophenyl)-2-(3-(4-methylthiazol-2-yl)-4-(quinoxalin-6-yl)-1H-pyrazol-1-yl)ethanethioamide], at ALK5, inhibition was half-maximal at 0.28 µM (IC50), the “fold more selective than compound 3 (LY-2157299) against p38α MAP kinase” value came to 9.0 fold, the “Selectivity Index” value is on record as over 35 and the remaining activity at 10 µM amounted to 2%. The compound also registered an inhibition at 10 µM against ALK5 (at 10 µM) of 98%. On p38α MAP kinase, the IC50 is over 10 µM and the remaining activity at 10 µM worked out at 92%.
For the compound `Cc1csc(-c2nn(CC(=S)Nc3cccc(F)c3)cc2-c2ccc3nccnc3c2)n1` [Compound 19c, N-(3-Fluorophenyl)-2-(3-(4-methylthiazol-2-yl)-4-(quinoxalin-6-yl)-1H-pyrazol-1-yl)ethanethioamide], at ALK5, the IC50 is 0.33 µM, the “Selectivity Index” value is over 30 and the remaining activity at 10 µM was 2%. Moreover, at p38α MAP kinase, the IC50 is over 10 µM and the remaining activity at 10 µM is 109%.
On the same counts, the results for `Cc1csc(-c2nn(CC(=S)Nc3cccc(C#N)c3)cc2-c2ccc3nccnc3c2)n1` [Compound 19d, N-(3-Cyanophenyl)-2-(3-(4-methylthiazol-2-yl)-4-(quinoxalin-6-yl)-1H-pyrazol-1-yl)ethanethioamide] are 0.37 µM, over 27, 13%, over 10 µM and 105%.

For the origin of these results see paper PMC6320941, “Synthesis and Evaluation of 3-Substituted-4-(quinoxalin-6-yl) Pyrazoles as TGF-β Type I Receptor Kinase Inhibitors” (Molecules, 2018).
